Assay results taken from the supplement of paper PMC10307832.

Assays:
Test in all cases: relative viability (nuclei count vs DMSO), 5 days (fraction); higher = more cells survive
Carfilzomib + Luminespib = compound: CC(C)C[C@H](NC(=O)[C@H](CCc1ccccc1)NC(=O)CN1CCOCC1)C(=O)N[C@@H](Cc1ccccc1)C(=O)N[C@@H](CC(C)C)C(=O)[C@@]1(C)CO1 [Carfilzomib] + CCNC(=O)c1noc(-c2cc(C(C)C)c(O)cc2O)c1-c1ccc(CN2CCOCC2)cc1 [Luminespib] (partner 0.01 µM)
Procedure, shortened: (§1)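 Five library-drug doses in √10 steps were combined with a fixed anchor-drug dose, or a single drug was given alone, by pin tool to lung cancer cell lines in 1536-well plates the day after seeding. Nuclei were stained and counted after 5 days. Relative viability is the nuclei count in treated wells over that in vehicle wells, taken as the median of duplicate plates.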

Carfilzomib + Dasatinib = compound: CC(C)C[C@H](NC(=O)[C@H](CCc1ccccc1)NC(=O)CN1CCOCC1)C(=O)N[C@@H](Cc1ccccc1)C(=O)N[C@@H](CC(C)C)C(=O)[C@@]1(C)CO1 [Carfilzomib] + Cc1nc(Nc2ncc(C(=O)Nc3c(C)cccc3Cl)s2)cc(N2CCN(CCO)CC2)n1 [Dasatinib] (partner 0.075 µM)
Procedure, shortened: as §1

Olaparib + Foretinib = compound: O=C(c1cc(Cc2n[nH]c(=O)c3ccccc23)ccc1F)N1CCN(C(=O)C2CC2)CC1 [Olaparib] + COc1cc2c(Oc3ccc(NC(=O)C4(C(=O)Nc5ccc(F)cc5)CC4)cc3F)ccnc2cc1OCCCN1CCOCC1 [Foretinib] (partner 0.25 µM)
Procedure, shortened: as §1

Olaparib + Tozasertib = compound: O=C(c1cc(Cc2n[nH]c(=O)c3ccccc23)ccc1F)N1CCN(C(=O)C2CC2)CC1 [Olaparib] + Cc1cc(Nc2cc(N3CCN(C)CC3)nc(Sc3ccc(NC(=O)C4CC4)cc3)n2)n[nH]1 [Tozasertib] (partner 0.1 µM)
Procedure, shortened: as §1

Cell Line	relative viability (Carfilzomib + Luminespib; first compound 0.001 µM)	relative viability (Carfilzomib + Luminespib; first compound 0.003162 µM)	relative viability (Carfilzomib + Luminespib; first compound 0.01 µM)	relative viability (Carfilzomib + Luminespib; first compound 0.03162 µM)	relative viability (Carfilzomib + Luminespib; first compound 0.1 µM)	relative viability (Carfilzomib + Dasatinib; first compound 0.003162 µM)	relative viability (Carfilzomib + Dasatinib; first compound 0.01 µM)	relative viability (Carfilzomib + Dasatinib; first compound 0.03162 µM)	relative viability (Carfilzomib + Dasatinib; first compound 0.1 µM)	relative viability (Olaparib + Foretinib; first compound 0.08 µM)	relative viability (Olaparib + Foretinib; first compound 0.253 µM)	relative viability (Olaparib + Foretinib; first compound 2.53 µM)	relative viability (Olaparib + Foretinib; first compound 8 µM)	relative viability (Olaparib + Tozasertib; first compound 0.08 µM)	relative viability (Olaparib + Tozasertib; first compound 0.253 µM)	relative viability (Olaparib + Tozasertib; first compound 2.53 µM)	relative viability (Olaparib + Tozasertib; first compound 8 µM)	relative viability (Carfilzomib + Dasatinib; first compound 0.001 µM)
NCI-H1975	0.2	0.185	0.261	0.167	0.16	0.33	0.144	0.0922	0.107	1.04	0.929	0.98	0.908	0.821	0.715	0.85	0.699	
NCI-H1993	0.9	0.932	0.983	0.71	0.462	0.597	0.581	0.467	0.453	0.906	0.794	1.04	0.931	0.546	0.537	0.557	0.521	0.604
NCI-H2009	1.1	1.06	1.03	1.08	0.121	0.386	0.3	0.113	0.0713	1.35	1.16	1.17	1.06	0.81	0.678	0.761	0.648	0.293
NCI-H2023	0.81	0.795	0.626	0.362	0.0768	0.698	0.59	0.181	0.082	0.931	0.733	0.775	0.733	0.357	0.298	0.32	0.238	0.569
NCI-H2085	0.505	0.472	0.359	0.205	0.189	0.256	0.255	0.249	0.192	1.1	0.831	0.916	0.886	0.943	0.756	0.847	0.753	0.239
NCI-H2087	0.212	0.146	0.215	0.0619	0.0448	0.994	0.465	0.0405	0.0695	1.08	0.921	0.949	0.736	0.31	0.204	0.324	0.18	0.781
NCI-H2126	0.875	0.999	0.938	0.744	0.465	0.641	0.705	0.655	0.268	1.06	1.15	1.36	1.18	0.915	0.794	0.869	0.83	0.655
NCI-H2170	0.635	0.666	0.612	0.579	0.311	0.519	0.832	0.352	0.237	1.01	0.98	0.994	0.948	0.81	0.806	0.705	0.629	0.56
NCI-H2228	0.145	0.152	0.161	0.123	0.144	0.526	0.442	0.0721	0.0819	0.884	0.767	0.805	0.765	0.324	0.207	0.201	0.136	0.539
NCI-H2342	0.69	1.01	0.794	0.798	0.581	0.32	0.355	0.374	0.321	1.18	1.18	0.977	0.948	0.458	0.552	0.479	0.416	0.364
NCI-H2347	0.509		0.266	0.346	0.201		0.338	0.197	0.173	0.902	0.945	0.786	0.977	0.548	0.48	0.483	0.54	0.335
NCI-H2405		0.873	0.851	0.759	0.32	0.218	0.203	0.247	0.188	1.11	1.01	0.946	0.956	0.807	0.722	0.66	0.654	
NCI-H3122	0.064	0.0963	0.106	0.107	0.106	0.925	0.909	0.69	0.162	0.895	0.946	0.873	0.781	0.466	0.376	0.457	0.346	0.868
PC-3 [JPC-3]	0.754	0.706	0.742	0.646	0.331	0.972	0.996	0.597	0.428	1.03	0.948	0.985	0.948	0.913	0.855	0.946	0.843	0.914
PC-14	0.143	0.176	0.18	0.117	0.109	0.305	0.241	0.0289	0.0424	1.06	0.892	0.903	0.684	0.602	0.557	0.536	0.419	0.311
RERF-LC-KJ	1.24	1.29	1.32	0.609	0.224	0.82	0.867	0.388	0.184	0.922	0.797	1	0.919	0.531	0.453	0.505	0.475	0.792
SK-LU-1	0.238	0.223	0.211	0.154	0.13	0.189	0.236	0.0906	0.117	0.91	0.657	0.748	0.526	0.355	0.323	0.335	0.247	0.167
SK-MES-1	0.854	0.902	0.759	0.544	0.172	0.454	0.409	0.197	0.107	1.05	0.861	0.907	0.889	0.962	0.828	0.818	0.562	0.323
